Where “and” joins values, the source holds several entries; their conditions need not be identical. Identical values can stand only once. Residues, ends and D or L forms follow the SMILES beside them. *: point of attachment. NHOH = ON*
What was measured:
[1] = tested on: IM-9 cells (Multiple Myeloma); assay: Cell kill of IM-9 cells, CyQuant NF assay (DNA content); type: cell-based
Procedure: Compounds 6 and 9 were tested for their ability to kill IM-9 cells (Multiple Myeloma). Approximately 25,000 cells were plated in RPMI medium (4 mM glutamine). Compounds 6 and 9 were dissolved in PBS and pH adjusted to neutrality (200 mM stock). Compound 9 was added at 1 mM, 2 mM and 4 mM concentrations into separate wells. Compound 6 was added at 0.25 mM and 1 mM concentrations into separate wells. The cells were incubated for 48 and 96 hours in the presence of […], and 48 and 72 hours in the presence of compound 6. Cell number was determined with the CyQuant NF assay (measures DNA content) according to manufacturer's instruction (Invitrogen). For the sake of clarity, compounds 6 and 9 are reproduced below: […]

[2] = tested on: Panc1 cells (Pancreatic cancer); assay: Cell kill of Panc1 cells, CyQuant NF assay (DNA content); type: cell-based
Procedure: Compounds 6 and 9 were tested with Panc1 cells (Pancreatic cancer) plated in DMEM medium (2 mM glutamine). Approximately 30,000 live cells were plated. Compounds were dissolved in PBS and pH adjusted to neutrality (200 mM stock). Compound 9 was added at 1 mM, 2 mM and 4 mM concentrations into separate wells. Compound 6 was added at 0.25 mM and 1 mM concentrations into separate wells. The cells were incubated for 48 and 96 hours in the presence of compound 9, and 48 and 72 hours in the presence of compound 6. Cell number was determined with the CyQuant NF assay (measures DNA content) according to manufacturer's instruction (Invitrogen).

[3] = 1 mM compound, Day 2, DMEM medium (2 mM glutamine)

| SMILES | Cells killed v. control ([1]; 0.25 mM compound, Day 3, RPMI medium (4 mM glutamine)) | Cells killed v. control ([1]; 1 mM compound, Day 2, RPMI medium (4 mM glutamine)) | Cells killed v. control ([1]; 1 mM compound, Day 3, RPMI medium (4 mM glutamine)) | Cells killed v. control ([2]; 0.25 mM compound, Day 2, DMEM medium (2 mM glutamine)) | Cells killed v. control ([2]; 0.25 mM compound, Day 3, DMEM medium (2 mM glutamine)) | Cells killed v. control [2, 3] | Cells killed v. control ([2]; 1 mM compound, Day 3, DMEM medium (2 mM glutamine)) | Cells killed v. control ([1]; 1 mM compound, Day 4, RPMI medium (4 mM glutamine)) | Cells killed v. control ([1]; 2 mM compound, Day 2, RPMI medium (4 mM glutamine)) | Cells killed v. control ([1]; 2 mM compound, Day 4, RPMI medium (4 mM glutamine)) | Cells killed v. control ([1]; 4 mM compound, Day 2, RPMI medium (4 mM glutamine)) | Cells killed v. control ([1]; 4 mM compound, Day 4, RPMI medium (4 mM glutamine)) | Cells killed v. control ([2]; 2 mM compound, Day 2, DMEM medium (2 mM glutamine)) | Cells killed v. control ([2]; 2 mM compound, Day 4, DMEM medium (2 mM glutamine)) | Cells killed v. control ([2]; 4 mM compound, Day 2, DMEM medium (2 mM glutamine)) | Cells killed v. control ([2]; 4 mM compound, Day 4, DMEM medium (2 mM glutamine)) |
| --- | --- | --- | --- | --- | --- | --- | --- | --- | --- | --- | --- | --- | --- | --- | --- | --- |
| NC(=O)CC[C@H](NC(=O)CC[C@H](N)C(=O)O)C(=O)NO [Compound 6, β-Glu-Gln (NHOH mimetic)] | ~87% | ~83% | ~91% | ~32% | ~50% | ~66% | ~75% | – | – | – | – | – | – | – | – | – |
| NC(=O)CCC(NC(=O)C(N)CCC(=O)O)C(=O)NO (stereo not drawn) [Compound 9, α-Glu-Gln (NHOH mimetic)] (H-Glu-Gln-{NHOH}; configuration not given here) | – | – | – | – | – | ~0% | – | ~58% and 58% | ~29% | ~66% | ~61% | ~96% | ~7% | ~9% | ~11% | ~55% |

— US20190309017A1, “GLUTAMINASE INHIBITORS” (Glutaminax, LLC, priority 2018, published 2019)
